# Results reported in patent US10561703B2, “Method of modulating sex hormone levels using a sex hormone secretion modulator” (GEMVAX & KAEL CO., LTD., priority 2013, dated 2020).
# Tests used:
# [1] = test system: GnRH mRNA; assay: Relative GnRH mRNA expression in serum, real-time qPCR; type: in vivo, Sprague-Dawley (SD) rats; conditions: 100 mg/kg sc, 4 hr post-administration, Day 1
# Procedure: Sprague-Dawley (SD) rats were obtained from Orient Bio (Gyronggi-do, South Korea), and seven-week-old rats were used for the study. Rat were administered by subcutaneous (sc) injection of PEP-1 (100 mg/kg) twice (at Day 1 and at Day 7) during the seven day study period. Blood samples (1.4 mL) were collected at Day 0 (before the administration of PEP-1), at Day 1 (4 hr and 8 hr post injection), and at Day 7 (4 hr post injection). Serum samples obtained from the blood were used for the experiment. Serum samples prepared from the blood collected at Day 1 (4 hr post injection) were used for the experiment. The animal care and procedures were approved and in accordance with the Korea Animal Medical Science Institute (KAMSI) IACUC.
# RNA isolation and cDNA synthesis from the serum samples. The external control, miRNeasy Serum/Plasma Spike-In Control was added in each serum sample prior to the RNA extraction. […]
# Real-time qPCR was performed using the RT2 SYBR Green qPCR Mastermix kit (Qiagen) with a CFX96 Real-Time System (Bio-Rad, Hercules, Calif., USA). Data was analyzed by CFX Manager™ Software V3.0 using the ΔΔCt method.
# Rat serum samples obtained from the blood collected at 4 hr post-administration of PEP-1 (100 mg/kg) on the 1st day of the experiment were analyzed for the mRNA expression of gonadotropin-releasing hormone (GnRH). […]
# [2] = test system: RWPE-1; assay: Cell proliferation (CCK-8) in prostate epithelial cell line; type: cell-based
# Procedure: When testosterone is injected into the body, testosterone becomes dihydrotestosterone (DHT) due to 5α-reductase, which stimulates the proliferation of prostate cells and induces benign prostatatic hyperplasia (BPH). Based on these facts, a PEP-1 (GV1001) injection experiment was performed for the inhibition of proliferation of prostatic cells in the following manner: The cell lines were mesenchymal cell lines (WPMY-1) and epithelial cell lines (RWPE-1) of prostates obtained from BPH animal models. […] Observation of changes in the proliferation was performed by suctioning a culture medium, adding 10 μL of CCK-8 solution to each well, and measuring an optical density at 450 nm for 1 hour to about 4 hours.
sequence,measurement,setting,value
"EARPALLTSRLRFIPK (listed as Homo sapiens) [PEP-1, hormone secretion modulator / GnRH analog]",Relative GnRH mRNA expression in serum,[1]; female rats,increased the relative GnRH mRNA expression
same,Relative GnRH mRNA expression in serum,[1]; male rats,increased the relative GnRH mRNA expression
same,Cell proliferation (optical density at 450 nm) versus untreated cells,"[2]; RWPE-1, 100 and 200 μM GV1001, no DHT",did not show a substantial difference in optical densities
same,Inhibition of DHT-induced cell proliferation,"[2]; RWPE-1, 100 and 200 μM GV1001 with 25 nM DHT",substantial inhibition effects on proliferation
